This is an account of results in patent publication US20230305016A1, “TEST KIT AND METHOD OF DETERMINING TRYPTOPHAN IN EXTRACTS OF FAECAL SAMPLES” (IMMUNDIAGNOSTIK AG, priority 2020, published 2023).

Like-named read-outs stand apart in the source and are kept apart here.

For data set [1] the following is noted: rat, in vivo; cited from earlier work.
Details of data set [2]: key to Oxidation into 14CO2: x: Detected but not quantified; xx: Detected but not quantified. The following applies: rats, cited from earlier work.
For another data set, the system named is GLUT5. The following applies: mice; duodenum and adipose tissue; cited from earlier work.
The conditions of data set [3]: carboxyl group; cited from earlier work.
A further data set has as its system depression. To be noted: cited from earlier work; for side effects: adults; for effective in alleviating depression in adults: versus placebo.
Data set [4] in a line: Alkaline hydrolyzation of spiked fructose-tryptophan Amadori product in stool extract. The following applies: 10 M NaOH, 100° C., 20 min. The format is physicochemical. The method, then:
5 mg fructose-tryptophan Amadori product (MW=366.37 Da) was dissolved in 2.27 ml aqua dest. (6 mM/L). The concentration of peptide groups in this solution was determined to be 4.36 mM/L using a BCA test (Smith P K et al, Measurement of protein using bicinchoninic acid, in: Analytical Biochemistry […], 150(1):76-85, doi:10.1016/0003-2697(85)90442-7). This concentration was taken in the spiking experiments. The IDK® Amino Extract (dilution 1:50) was spiked with fructose-tryptophan Amadori product (not the raw stool) to achieve a target concentration the spiked fecal extract of 6 μM Amadori adduct/L. This corresponds to a spiking of 300 μM fructose-tryptophan Amadori product per gram stool as the stool was diluted 1:50 in the extract.
The spiking and hydrolyzation was carried out as follows: 70 μl stool extract were spiked with 10 μl 60 μM/L fructose-tryptophan Amadori product (as determined by BCA) and 10 μl 10 M NaOH. This solution was incubated at 100° C. for 20 min. to achieve hydrolyzation of all adducts and centrifuged at 550 rpm for removal of any precipitate. Finally, 10 μl 10 M HCl was added to neutralize (dilution 1:10) the solution prior measurement of tryptophan. In case of a spiking with fructose or tryptophan, the spiking solution contained 60 μM/L fructose and/or tryptophan each.

The mark [5] stands for this setting: % of the ingested/injected material.

As to `NC(CCCCNCC(=O)C(O)C(O)C(O)CO)C(=O)O` (stereo not shown) [ε-Lysine], the “absorption in the intestine” value in data set [1] is on record as “NOT absorbed in the intestine”.

Regarding `N[C@@H](Cc1c[nH]c2ccccc12)C(=O)O` [^14C-Tryptophan], in data set [2] (setting [5]), the Retention in liver is listed as 0.7% and the urinary excretion is 60%. In addition, in data set [2] (detected but not quantified), the “Oxidation into 14CO2” value is “xx^b”. Also, in data set [2] (summary of Table 1), the urinary excretion is given as about 60%.

As for `O=S(=O)(c1ccccc1)N(CC(F)(F)F)c1ccc(C(O)(C(F)(F)F)C(F)(F)F)cc1` [T0901317], in the data set on GLUT5, the “GLUT5 mRNA” value is listed as “increase” and the GLUT5 protein levels entry was “increased”.

For the compound `N[C@@H](Cc1c[nH]c2ccccc12)C(=O)O` [tryptophan], in data set [3], the pKa is given as 2,38. In addition, in the data set on depression, the side effects entry was “may have serious side effects” and the “effective in alleviating depression in adults” value is listed as “better than placebo”.

In the case of `N[C@@H](Cc1c[nH]c2ccc(O)cc12)C(=O)O` [5-HTP, 5-hydroxytryptophan], in the data set on depression, the side effects result is reported as “may have serious side effects” and the “effective in alleviating depression in adults” value is given as “better than placebo”.

On to “D-fructose-L-tryptophan [fructose-tryptophan Amadori product]”, for which, in data set [4], the “hydrolyzation of added adduct” value is “hydrolyzed”.
